The values that follow come from patent US20090181972A1, “Novel Inhibitors of Cysteine Proteases, the Pharmaceutical Compositions Thereof and their Therapeutic Applications” (priority 2005, published 2009).

Experiment [1] deals with T1, Uch-L3 (Homo sapiens, UniProt P15374).
T1 sequence (P15374 1-230): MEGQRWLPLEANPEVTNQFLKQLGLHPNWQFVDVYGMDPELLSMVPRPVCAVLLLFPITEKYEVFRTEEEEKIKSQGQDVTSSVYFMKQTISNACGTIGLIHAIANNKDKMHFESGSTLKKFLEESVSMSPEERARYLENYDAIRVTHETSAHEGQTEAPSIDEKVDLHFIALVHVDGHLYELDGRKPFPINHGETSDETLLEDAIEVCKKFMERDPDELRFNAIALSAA
The experiment is described as follows: UCH-L3 activity assay. The following applies: 400 nM Ub-AMC, 13 pM enzyme; pre-incubated 30 minutes at 25° C., 60 minutes at 37° C.; sigmoidal fit. The format is biochemical. The protocol: Uch-L3 was diluted in USP buffer (50 mM Tris HCl; 0.5 mM EDTA; 5 mM DTT; 0.01% Triton X-100; Bovine Serum Albumin 0.05 mg.ml^−1 pH 7.6). Compounds stocks (100 mM) were stored at −20° C. in DMSO. Compounds were tested at the following final concentrations: 100 μM; 33.3 μM; 11.1 μM; 3.7 μM; 1.23 μM; 412 nM; 137 nM; 45.7 nM; 15.2 nM; 5 nM.
Reactions were performed as duplicates in Black LJL 96 well plates (HE microplates; Molecular Devices; 20 μl final reaction volume). The substrate concentration for Uch-L3 was 400 nM Ub-AMC (Boston Biochem). The concentration of the enzyme (Uch-L3) in specificity assays was 13 pM. The concentrations were determined in order to perform specificity assays under initial velocities at fixed substrate concentration. Compounds were pre-incubated with enzymes for 30 minutes at 25° C. Reactions were initiated by addition of substrate to the plates containing the enzymes (+/− compounds) diluted in assay buffer. Reactions were incubated for 60 minutes at 37° C. Reactions were stopped by adding acetic acid (100 mM final). Readings were performed on a Pherastar Fluorescent Reader (BMG). δ Emission 380 nm; δ Excitation=460 nm. Data (mean values +/− standard deviation) were analyzed as % of control (no compound) and plotted as percentage versus the Log of the compound concentration using GraphPad (Prism). Data were fitted to a sigmoidal model (variable slope).

The target in experiment [2] is T2, Caspase 3 (Homo sapiens, UniProt P42574).
T2 sequence (P42574 29-175 limits assumed): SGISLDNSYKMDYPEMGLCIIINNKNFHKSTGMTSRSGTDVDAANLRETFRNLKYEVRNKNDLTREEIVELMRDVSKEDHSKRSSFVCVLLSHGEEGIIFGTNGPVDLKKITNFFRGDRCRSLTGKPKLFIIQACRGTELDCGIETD
T2 sequence (P42574 176-277 limits assumed): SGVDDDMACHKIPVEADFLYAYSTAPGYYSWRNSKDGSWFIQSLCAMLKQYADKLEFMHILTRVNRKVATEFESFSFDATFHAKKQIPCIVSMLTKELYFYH
As to the kind of experiment: Caspase 3 activity assay. The format is biochemical. The following applies: 500 nM Ac-DEVD-AMC, 3.2 nM enzyme; pre-incubated 30 minutes at 25° C., 60 minutes at 37° C.; sigmoidal fit. On the procedure:
Caspase 3 was diluted in Caspase 3 buffer (100 mM Hepes pH 7.5; 10% sucrose; 0.1% CHAPS). Compounds stocks (100 mM) were stored at −20° C. in DMSO. Compounds were tested at the following final concentrations: 100 μM; 33.3 μM; 11.1 μM; 3.7 μM; 1.23 μM; 412 nM; 137 nM; 45.7 nM; 15.2 nM; 5 nM. Reactions were performed as duplicates in Black LJL 96 well plates (HE microplates; Molecular Devices; 20 μl final reaction volume). The substrate concentration for caspase 3 specificity assay was 500 nM (Ac-DEVD-AMC; Promega). The concentration of the enzyme (Caspase 3) in specificity assays was 3.2 nM. The concentrations were determined in order to perform specificity assays under initial velocities at fixed substrate concentration. Compounds were pre-incubated with enzymes for 30 minutes at 25° C. Reactions were initiated by addition of substrate to the plates containing the enzymes (+/− compounds) diluted in assay buffer. Reactions were incubated for 60 minutes at 37° C. Reactions were stopped by adding acetic acid (100 mM final). Readings were performed on a Pherastar Fluorescent Reader (BMG). δ Emission 380 nm; δ Excitation=460 nm. Data (mean values +/− standard deviation) were analyzed as % of control (no compound) and plotted as percentage versus the Log of the compound concentration using GraphPad (Prism). Data were fitted to a sigmoidal model (variable slope).

`CCc1nnc2nc3c(nn12)C(=O)c1cc(OC)c(OC)cc1-3` [Example 5b/A, 1-Ethyl-6,7-dimethoxy-2,3,4,10,10a-pentaaza-cyclopenta[b]fluoren-9-one]: the half-maximal inhibitory concentration (IC50) in experiment [1] is 1800 nM; in experiment [2], 5200 nM.

As for `CC(C)c1nnc2nc3c(nn12)C(=O)c1ccccc1-3` [Example 1l/A, 1-lsopropyl-2,3,4,10,10a-pentaaza-cyclopenta[b]fluoren-9-one], the half-inhibitory concentration (IC50) in experiment [1] turned out to be 800 nM; in experiment [2], 5000 nM.

For “6-(7)-Chloro-1-methyl-2,3,4,10,10a-pentaaza-cyclopenta[b]fluoren-9-one [Example 3/A]”, the IC50 was found to be 323 nM in experiment [1] and 1510 nM in experiment [2].

For `CCc1nnc2nc3c(nn12)-c1cc(OC)c(OC)cc1C3=O` [Example 5b/B, 3-Ethyl-6,7-dimethoxy-1,2,3a,4,10-pentaaza-cyclopenta[b]fluoren-9-one], the IC50 in experiment [1] was found to be 131 nM; in experiment [2], 314 nM.

In general, IC50 refers to the concentration that inhibits the measured activity by half.
